“And” between values parts separate entries of the source, which are not always exact repeats. Equal entries are not always repeated. “Also recorded” adds a separate entry of the source.
Columns and labels:
[1] = test system: anterior chamber aqueous humor pressure load rat model; assay: Retinal thickness (IPL, INL, ONL) in retinal damage model induced by anterior chamber aqueous humor pressure load; type: in vivo, Rat; Slc: SD; settings: for Inner plexiform layer (IPL) thickness compared with the control group, in words: 300 to 900 μm from the optic disk
Description: • Name: Compound 9 • Source: Synthesized in the above Examples • Used amount: 0.4 mL (50 mg/mL solution) • Storage conditions: Freezing, light shielding
Method for preparing test substance (1 mg/mL): A high concentration solution prepared at 50 mg/mL was diluted 50 times with a medium to prepare a 1 mg/mL administration solution.
• Name: MK-801 • Distributor: SIGMA-ALDRICH • Use amount: 0.0501 g • Storage condition: refrigerated (2° C. to 8° C.)
Method for preparing positive control substance (10 mg/mL): 0.0501 g was weighed out and made up to a total volume of 5 mL with a control substance (physiological saline).
• Species and strains: Rat; Slc: SD • Number of animals on arrival and sex: 50 males • Age in weeks at arrival: 6 weeks old • Body weight range at arrival: 147.2 to 170.0 g • Source: Japan SLC, Inc.
Grouping was performed two days before the first creation of the retinal damage model induced by an anterior chamber aqueous humor pressure load. Using the daily body weight as an index, stratified random allocation was performed using SAS (Ver. 9.3, SAS Institute Japan Ltd.) and EXSUS (Ver. 8.0, CAC Croit Corporation) so that an average value of the body weights of each group was approximately uniform.
• Administration route: Eyedrop administration, intravenous administration • Administration method (eyedrop): Eyedrop administration was performed on a treated eye (right eye) of a rat using a micropipette 4 times a day (at intervals of 1.5 hours or more). • Administration method (intravenous): The amount of administration solution, calculated from the body weight on the day of administration, was administered from the tail vein using a syringe and an injection needle about 30 minutes before ischemic load. • Time of administration: Administration was performed according to the following schedule.
1. 10 mg/kg xylazine hydrochloride was intramuscularly administered on the model creation day (day 0). A rat was placed in an anesthesia box and subjected to general anesthesia with isoflurane (5%, oxygen:nitrous oxide=1:3). When anesthesia was effective, the rat was taken out of the anesthesia box, an inhalation anesthetic mask was worn, and anesthesia was maintained with isoflurane (1% to 5%, oxygen nitrous oxide=1:3).
2. The body temperature was maintained at 37° C. with a warming mat, and a mydrin P ophthalmic solution was instilled in the right eye (treated eye) of the rat to dilate the pupil, then the cravit ophthalmic solution 1.5% (Santen Pharmaceutical Co., Ltd.) was instilled.
3. A bottle of an IV bag containing physiological saline was previously suspended so that a water surface was 155 cm (100 mmHg or more) higher than the eye of the rat. The IV bag was connected to a pediatric infusion set (Terumo Corporation), a 27 G injection needle thereof was inserted into and fixed to the anterior chamber while slightly dripping the liquid from a needle tip. The model was created in the light phase (6:00 to 18:00) in consideration of the diurnal variation of the intraocular pressure.
4. After the needle was inserted into the anterior chamber, pressure (100 mmHg or more) was loaded and maintained in the anterior chamber by associating the reflux system.
5. After an ischemic load for 45 minutes, the injection needle and the like were removed, the inhalation anesthetic mask was removed, and the rat was sufficiently woken up under a warming mat, and then returned to the cage.
6. For 2 days after surgery, 10 mg/kg xylazine hydrochloride was intramuscularly administered as an analgesic for the purpose of alleviating the pain after the treatment.
1. Fourteen days after model creation, general anesthesia was performed with isoflurane (5%, oxygen:nitrous oxide=1:3), euthanasia was then performed by exsanguination, a suture was placed as a marker at the 12 o'clock position of the ocular conjunctiva, and eyeball enucleation was performed.
2. […]

[2] = Body weight measurement during the CNV rat test; type: in vivo; settings: for Body Weight (Average): 14 days 4 times a day
Description: The appearance, behavior, and state of excrement or the like were observed every day.
The body weight was measured on the animal arrival date, the preliminary housing end date (grouping date), the eyedrop administration start date, the laser irradiation date (Day 0), and the eyeball enucleation date (Day 14).

[3] = compound 9, 1 mg/mL eye drop, right eye, individual animals 301-310
[4] = test groups 2 and 3 (test substance groups)

SMILES: CC[C@@]1(C)Oc2cc(ccc2O)C[C@H](NC)C(=O)N[C@@H](C(C)C)C(=O)N[C@@H]1C(=O)N[C@@H](CC(=O)O)C(=O)O [Compound 9]
- Thickness of ONL, distance from optic disk 300 μm (single measurement) [1, 3]: 29.809 μm and 32.509 μm and 28.214 μm and 43.038 μm and 41.873 μm and 42.494 μm and 36.113 μm and 33.931 μm and 32.522 μm and 36.780 μm and 37.800 μm and 37.520 μm and 42.742 μm and 39.019 μm and 43.913 μm and 40.612 μm and 41.912 μm and 42.252 μm and 45.276 μm and 46.187 μm (2×) and 47.148 μm and 61.386 μm and 56.945 μm and 55.989 μm and 51.520 μm and 53.774 μm and 52.512 μm and 40.451 μm and 43.373 μm
- Thickness of ONL, distance from optic disk 600 μm (single measurement) [1, 3]: 30.220 μm and 32.139 μm and 47.765 μm and 48.521 μm (2×) and 35.360 μm and 35.504 μm and 40.331 μm and 37.009 μm and 49.431 μm and 49.964 μm and 42.863 μm and 40.883 μm and 44.362 μm and 46.081 μm and 44.179 μm and 42.769 μm and 44.033 μm and 41.550 μm and 42.129 μm and 31.379 μm and 50.234 μm and 36.932 μm and 39.277 μm and 47.914 μm and 40.524 μm and 43.548 μm and 48.975 μm and 41.515 μm and 45.970 μm
- Thickness of ONL, distance from optic disk 900 μm (single measurement) [1, 3]: 26.908 μm and 28.742 μm and 28.226 μm and 52.295 μm and 46.680 μm and 52.512 μm and 29.438 μm and 34.522 μm and 34.086 μm and 36.727 μm and 35.966 μm and 41.192 μm and 41.663 μm and 39.411 μm and 42.337 μm and 37.593 μm and 40.812 μm and 38.516 μm and 42.098 μm and 44.443 μm and 46.165 μm and 42.932 μm and 37.619 μm and 42.252 μm and 39.713 μm and 39.071 μm and 42.321 μm and 37.664 μm and 38.550 μm and 42.169 μm
- Inner plexiform layer (IPL) thickness compared with the control group, in words ([1]; test group 2 (preventive: eye drop on the 2 days before model creation)): statistically significant differences were observed at all measurement sites; also recorded: statistically significant effect of suppressing retinal damage by aqueous humor pressure load was observed at all measurement sites
- Inner plexiform layer (IPL) thickness compared with the control group, in words ([1]; test group 3 (therapeutic: eye drop for 13 days from the day after model creation)): statistically significant differences were observed at all measurement sites; also recorded: statistically significant effect of suppressing retinal damage by aqueous humor pressure load was observed at all measurement sites; also recorded: almost equivalent to that of the MK-801
- Inner nuclear layer (INL) thickness compared with the control group, in words [1, 4]: no obvious change was observed
- Outer nuclear layer (ONL) thickness compared with the control group, in words [1, 4]: no obvious change was observed
- Body Weight (Average) ([2]; Group 3, eye drop 5 μg/5 μL/eye, Day 0 (Laser injection)): 152.66 g
- Body Weight (Average) ([2]; Group 3, eye drop 5 μg/5 μL/eye, Day 14 (Enucleation)): 184.36 g
- Body Weight (Average) ([2]; Group 3, eye drop 5 μg/5 μL/eye, Day −3 or Day −2 (Grouping)): 141.80 g
- Weight (g) (Individual) ([2]; Group 3 individual animals, eye drop 5 μg/5 μL/eye, Enucleation (Day 14)): 187.51 g and 200.36 g and 188.53 g and 178.12 g and 191.73 g and 185.42 g and 178.06 g and 179.74 g and 187.00 g and 167.09 g
- Weight (g) (Individual) ([2]; Group 3 individual animals, eye drop 5 μg/5 μL/eye, Grouping (Day −3 or −2)): 142.67 g and 150.51 g and 144.41 g and 133.08 g and 140.65 g and 139.40 g and 138.22 g and 145.52 g and 148.31 g and 135.25 g
- Weight (g) (Individual) ([2]; Group 3 individual animals, eye drop 5 μg/5 μL/eye, Laser injection (Day 0)): 156.06 g and 160.40 g and 156.65 g and 141.07 g and 149.62 g and 153.89 g and 146.49 g and 158.03 g and 159.18 g and 145.16 g
- Body Weight (Average) ([2]; Group 4, eye drop 50 μg/5 μL/eye, Day 0 (Laser injection)): 152.84 g
- Body Weight (Average) ([2]; Group 4, eye drop 50 μg/5 μL/eye, Day 14 (Enucleation)): 186.10 g
- Body Weight (Average) ([2]; Group 4, eye drop 50 μg/5 μL/eye, Day −3 or Day −2 (Grouping)): 141.65 g
- Weight (g) (Individual) ([2]; Group 4 individual animals, eye drop 50 μg/5 μL/eye, Enucleation (Day 14)): 171.86 g and 175.04 g and 182.32 g and 197.31 g and 192.55 g and 179.90 g and 198.77 g and 183.99 g and 193.77 g and 185.47 g
- Weight (g) (Individual) ([2]; Group 4 individual animals, eye drop 50 μg/5 μL/eye, Grouping (Day −3 or −2)): 133.40 g and 133.47 g and 138.61 g and 149.89 g and 142.02 g and 140.70 g and 144.50 g and 145.24 g and 149.29 g and 139.35 g
- Weight (g) (Individual) ([2]; Group 4 individual animals, eye drop 50 μg/5 μL/eye, Laser injection (Day 0)): 140.92 g and 141.64 g and 146.31 g and 156.67 g and 152.34 g and 152.92 g and 159.45 g and 160.10 g and 163.58 g and 154.47 g
